Assay results: paper PMC9014320 (Computational and Structural Biotechnology Journal, 2022)

What was measured:
rP2X2^gain = rP2X2^gain versus rP2X3^WT
cP2X3^WT = assay: Patch-clamp recording of ATP current, cP2X3 WT in HEK293 cells; type: cell-based, chicken; conditions: AF-219 30 μM
cP2X3^A196G = assay: Patch-clamp recording of ATP current, cP2X3 A196G in HEK293 cells; type: cell-based, chicken; conditions: AF-219 30 μM
P2X3 receptors = conditions: read-out: IC50, the concentration yielding half of the maximal inhibition; cited from earlier work
P2X1 = conditions: cited from earlier work
P2X2 = conditions: cited from earlier work
P2X4 = conditions: cited from earlier work
P2X5 = conditions: cited from earlier work
P2X7 = conditions: cited from earlier work
rP2X3^L191A = conditions: cited from earlier work

CCC(C)c1cc(OC)c(Cl)cc1Oc1cnc(N)nc1N (stereo not shown) [AF-219-2, 5-(2-(sec-butyl)-5-chloro-4-methoxyphenoxy)pyrimidine-2,4-diamine]
Fold increase of IC50 for rP2X2^gain over rP2X3^WT (rP2X2^gain): 18 fold

COc1cc(C(C)C)c(Oc2cnc(N)nc2N)cc1S(N)(=O)=O [AF-219]
Effect on the ATP (10 μM)-current of cP2X3^WT (cP2X3^WT): no inhibitory effect
Effect on the ATP (10 μM)-current of cP2X3^A196G (cP2X3^A196G): significantly inhibited
IC50 (P2X3 receptors): 0.0426 ± 0.0029 µM
IC50 (P2X1): > 10 µM
IC50 (P2X2): > 10 µM
IC50 (P2X4): > 10 µM
IC50 (P2X5): > 10 µM
IC50 (P2X7): > 10 µM
Inhibition of rP2X3^L191A (rP2X3^L191A): almost fully abolished the inhibition
